According to US20180305334A1, “COMPOUNDS, COMPOSITIONS AND METHODS OF USE AGAINST STRESS GRANULES” (Aquinnah Pharmaceuticals, Inc., priority 2015, published 2018):

Tested on: TDP-43 inclusions in PC12 cells stably expressing wild type (WT) TDP-43-GFP
Experiment: Dose response assay for TDP-43 inhibition
Format: cell-based
Conditions: Rattus norvegicus, PC-12, inhibition of TDP-43 inclusions, stressed with 15 μM, 12-point dose response
Experimental: Exemplary compounds of the invention were evaluated for efficacy in inhibiting TDP-43 inclusions using a dose response assay. Briefly, PC12 cells stably expressing wild type (WT) TDP-43-GFP were stressed with 15 μM to induce TDP-43 inclusions. The cells were then treated with exemplary compounds of the invention and the inhibitory effect on TDP-43 inclusions was observed using fluorescent microscopy. The ratio of cells with TDP-43 inclusions was calculated based on the total number of cells with detectable GFP expression. A 12-point dose response curve was generated, and the IC50 for each compound tested was determined.

Question: `COc1ccccc1OCC(=O)NC1CCCN(c2nc3ccccc3s2)C1` (stereo not drawn) [Compound 102, N-(1-(benzo[d]thiazol-2-yl)piperidin-3-yl)-2-(2-methoxyphenoxy)acetamide] was tested. Which IC50 did it give?
Answer: 251 to 500 nM

Question: For `CCN(CC1CCCN(CCc2cccc(OC)c2)C1)C(=O)c1cc2ccccc2[nH]1` (stereo not drawn) [Compound 101, N-ethyl-N-((1-(3-methoxyphenethyl)piperidin-3-yl)methyl)-1H-indole-2-carboxamide], which IC50 is on record?
Answer: 101 to 250 nM

Question: How did the IC50 turn out when `COc1cc(NC(=O)CCC2CCCN(Cc3ccc(F)c(OC)c3)C2)cc(OC)c1` (stereo not drawn) [Compound 100, N-(3,5-dimethoxyphenyl)-3-(1-(4-fluoro-3-methoxybenzyl)-piperidin-3-yl)propanamide] was run?
Answer: 101 to 250 nM

Tested on: Embryonic mouse hippocampal neurons transduced with AAV1 EGFP, WT TDP-43 EGFP, A315T TDP-43 EGFP, or Q331K TDP-43 EGFP
Experiment: Neuroprotection assay
Format: cell-based
Conditions: average rescue total dendrite length; neurons treated DIV7, 9, 11 at 10 times the IC50 value; fixed DIV12
Experimental: CMF dissection buffer: 1× Hank's balanced salt solution (Ca—/Mg, 500 mL) and 10 mM HEPES, pH 7.25-7.3 (1M stock, 5 mL)
Plating media: MEM (Earle salts+/Glutamine, 95 mL), FBS (to 2.5%, 2.5 mL), Pen/Strep (lx, 1 mL), glutamine (lx, 1 mL), and D-glucose (0.6% w/v, 0.6 g)
Feeding media: neurobasal media (96 mL), B27 supplement (2 mL), Pen/Strep (1 mL), and glutamine (1 mL).
Embryonic mouse hippocampal neurons were cultured according to Kaech, S. and Banker, G. (2006) Nat Protoc 1:2406-2415 and dissected at PO from CD1 mice. Once all the hippocampi were removed, they were placed in a 15 mL conical Falcon tube on ice and brought to a final volume of 4.5 mL with CMF dissection buffer. 0.5 mL of a 2.5% trypsin-EDTA solution was then added, and the mixture was incubated at 37° C. for 15 min. The trypsin solution was gently removed, leaving the tissue at the bottom of the Falcon tube. 5 mL CMF dissection buffer was then added, and after gentle mixing, the tissue was allowed to sediment. This procedure was repeated three times. The hippocampi were then dissociated by adding 1.8 mL platting media and repeatedly pipetting in a glass Pasteur pipette; the dissociation process was repeated 5-10 times. The cells were then passed through a 70 um cell strainer into a 50 mL conical tube to remove clumps and debris, and the neurons were plated on glass coverslips coated with poly-D-lysine/laminin. On DIV 1 neurons were transduced with AAV1 EGFP, WT TDP-43 EGFP, A315T TDP-43 EGFP, or Q331K TDP-43 EGFP. […] Neurons were traced and analyzed using NeuronJ.
Results of the neuroprotection assay for exemplary compounds of the invention are summarized in Table 2, wherein A represents an average rescue total dendrite length of >150%; B represents an average rescue total dendrite length of 100-149%; C represents an average rescue total dendrite length of 50-99%; D represents an average rescue total dendrite length of 0-49%; E represents an average rescue total dendrite length of <0%; and ND signifies that the average rescue total dendrite length was not determined.

Question: How did the “Average Additive Dendrite Length (%)” value turn out when `COc1ccccc1OCC(=O)NC1CCCN(c2nc3ccccc3s2)C1` (stereo not drawn) [Compound 102, N-(1-(benzo[d]thiazol-2-yl)piperidin-3-yl)-2-(2-methoxyphenoxy)acetamide] was run?
Answer: B (B represents an average rescue total dendrite length of 100-149%)

Question: How did the “Average Additive Dendrite Length (%)” value turn out when `CCN(CC1CCCN(CCc2cccc(OC)c2)C1)C(=O)c1cc2ccccc2[nH]1` (stereo not drawn) [Compound 101, N-ethyl-N-((1-(3-methoxyphenethyl)piperidin-3-yl)methyl)-1H-indole-2-carboxamide] was run?
Answer: C (C represents an average rescue total dendrite length of 50-99%)

Question: How did the “Average Additive Dendrite Length (%)” value turn out when `COc1cc(NC(=O)CCC2CCCN(Cc3ccc(F)c(OC)c3)C2)cc(OC)c1` (stereo not drawn) [Compound 100, N-(3,5-dimethoxyphenyl)-3-(1-(4-fluoro-3-methoxybenzyl)-piperidin-3-yl)propanamide] was run?
Answer: E (E represents an average rescue total dendrite length of <0%)

Tested on: TDP-43 aggregation in PC12 cells stably expressing TDP-43^Q331K::eGFP
Experiment: In vitro efficacy assay, TDP-43 aggregation concentration-response
Format: cell-based
Conditions: Rattus norvegicus, PC-12, inhibition of TDP-43 aggregation; PC12 TDP-43^Q331K::eGFP, 1 hour pre-treatment, 15 μM sodium arsenite for 23 hours; 10-point dose response
Method in brief: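 PC12 cells stably expressing TDP-43^Q331K::eGFP pre-treated with compound for 1 h, then stressed with 15 μM sodium arsenite for 23 h. Fluorescence microscopy scored the fraction of GFP-positive cells carrying TDP-43 aggregates across compound concentrations.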

Question: How did the IC50 turn out when `CCN(CC1CCCN(CCc2cccc(OC)c2)C1)C(=O)c1cc2ccccc2[nH]1` (stereo not drawn) [Compound 101, N-ethyl-N-((1-(3-methoxyphenethyl)piperidin-3-yl)methyl)-1H-indole-2-carboxamide] was run?
Answer: < 1500 nM

Question: How did the IC50 turn out when `CCN(CC1CCCN(Cc2ccc(Cl)cc2)C1)C(=O)c1cc2c(Cl)cc(Cl)cc2[nH]1` (stereo not drawn) [Compound 153] was run?
Answer: 1500 to 4000 nM

Question: With `CCN(CC1CCCNC1)C(=O)c1cc2ccc(Cl)cc2[nH]1` (stereo not drawn) [compound 423] as the molecule, how does the IC50 read?
Answer: < 1500 nM

Question: For `CCN(CC1CCCN(C2Cc3ccccc3C2)C1)C(=O)c1cc2ccccc2[nH]1` (stereo not drawn) [Compound 209], which IC50 is on record?
Answer: 4000 to 7000 nM

Question: How did the IC50 turn out when `CCN(CC1CCCN(c2cccc(OC)c2)C1)C(=O)c1cc2ccccc2[nH]1` (stereo not drawn) [Compound 228] was run?
Answer: > 10000 nM

Question: `CCN(CC1CCCN(Cc2ccc(OC)cc2)C1)C(=O)c1cc2cc(OCc3ccccc3)ccc2[nH]1` (stereo not drawn) [Compound 174] was tested. Which IC50 did it give?
Answer: 1500 to 4000 nM

Question: For `CCN(CC1CCCNC1)C(=O)c1cc2c(F)cccc2[nH]1` (stereo not drawn) [compound 421], which IC50 is on record?
Answer: 4000 to 7000 nM

Question: With `CCN(CC1CCCN(CCc2cccc(OC)c2)C1)C(=O)c1ccc[nH]1` (stereo not drawn) [Compound 231] as the molecule, how does the IC50 read?
Answer: 1500 to 4000 nM

Question: With `CCN(CC1CCN(Cc2ccc(OC(F)(F)F)cc2)CC1)C(=O)c1cc2cc(OC(F)(F)F)ccc2[nH]1` [compound 309] as the molecule, how does the IC50 read?
Answer: > 10000 nM

Question: Which IC50 does the source give for `CCN(CC1CCN(C(C)(C)Cc2cccc(OC)c2)CC1)C(=O)c1cc2ncccc2[nH]1` [Compound 363] here?
Answer: < 1500 nM

Question: `CCN(CC1CCN(CCc2cccc(OC)c2)CC1)C(=O)c1cc2ccccc2[nH]1` [compound 253] was tested. Which IC50 did it give?
Answer: 1500 to 4000 nM

Question: With `CCN(CC1CCN(C(C)(C)Cc2ccc(F)cc2)CC1)C(=O)c1cc2ccccc2[nH]1` [Compound 345] as the molecule, how does the IC50 read?
Answer: 1500 to 4000 nM

Question: Which IC50 does the source give for `CCN(CC1CCN(C(C)(C)Cc2cccc(OC)c2)CC1)C(=O)c1cc2ccccc2[nH]1` [Compound 332] here?
Answer: < 1500 nM

Question: With `CCN(CC1CCCN(CCc2ccccc2OC)C1)C(=O)c1cc2ccccc2[nH]1` (stereo not drawn) [Compound 124] as the molecule, how does the IC50 read?
Answer: 4000 to 7000 nM

Question: `CCN(CC1CCCN(CCc2cccc(OC)c2)C1)C(=O)c1cc2c([nH]1)CCCC2` (stereo not drawn) [Compound 243] was tested. Which IC50 did it give?
Answer: < 1500 nM

Question: Which IC50 does the source give for `COc1cccc(CC(C)(C)N2CCC(CN(CC(F)(F)F)C(=O)c3cc4ccccc4[nH]3)CC2)c1` [Compound 350] here?
Answer: < 1500 nM

Question: `COc1cccc(CCN2CCCC(CN(C(=O)c3cc4ccccc4[nH]3)c3ccccc3)C2)c1` (stereo not drawn) [Compound 144] was tested. Which IC50 did it give?
Answer: < 1500 nM

Question: Which IC50 does the source give for `CCN(CC1CCN(Cc2ccc(OC(F)F)cc2)CC1)C(=O)c1cc2cc(OC(F)F)ccc2[nH]1` [compound 311] here?
Answer: 7000 to 9900 nM

Question: Which IC50 does the source give for `CCN(CC1CCCN(C2CCc3ccc(OC)cc3C2)C1)C(=O)c1cc2ccccc2[nH]1` (stereo not drawn) [Compound 210] here?
Answer: > 10000 nM

Question: `CCN(CC1CCCN(Cc2cccc(OC(F)(F)F)c2)C1)C(=O)c1cc2cc(OC(F)(F)F)ccc2[nH]1` (stereo not drawn) [Compound 175] was tested. Which IC50 did it give?
Answer: > 10000 nM

Question: Which IC50 does the source give for `CCN(CC1CCCN(Cc2ccc(Cl)cc2)C1)C(=O)c1cc2c(OC)cccc2[nH]1` (stereo not drawn) [Compound 163] here?
Answer: < 1500 nM

Question: Which IC50 does the source give for `O=C(c1cc2ccccc2[nH]1)N(CC1CCN(CCc2cccc(F)c2)CC1)CC(F)(F)F` [compound 306] here?
Answer: < 1500 nM

Question: How did the IC50 turn out when `COc1cccc(CCNCCNC(=O)c2cc3ccccc3[nH]2)c1` [Compound 221] was run?
Answer: 1500 to 4000 nM

Question: How did the IC50 turn out when `CCN(CC1CCCN(CC(C)(C)c2cc3ccccc3o2)C1)C(=O)c1cc2ccccc2[nH]1` (stereo not drawn) [Compound 409] was run?
Answer: 1500 to 4000 nM

Question: For `O=C(NCC1CCN(Cc2cccc(F)c2)CC1)c1cc2ccccc2[nH]1` [compound 270], which IC50 is on record?
Answer: > 10000 nM

Question: With `CCN(CC1CCN(Cc2ccc(Cl)cc2)CC1)C(=O)c1cc2ccccc2[nH]1` [compound 289] as the molecule, how does the IC50 read?
Answer: > 10000 nM

Question: For `O=C(NCC1CCN(Cc2cccc(Cl)c2)CC1)c1cc2ccccc2[nH]1` [compound 271], which IC50 is on record?
Answer: < 1500 nM

Question: `CCN(CC1CCN(C(C)(C)c2ccccc2)CC1)C(=O)c1cc2cc(OC)ccc2[nH]1` [Compound 359] was tested. Which IC50 did it give?
Answer: < 1500 nM

Question: `CCN(CC1CCCN(Cc2cc3ccccc3o2)C1)C(=O)c1cc2ccccc2[nH]1` (stereo not drawn) [Compound 206] was tested. Which IC50 did it give?
Answer: < 1500 nM

Same assay, conditions: inhibition of TDP-43 aggregation; PC12 TDP-43^Q331K::eGFP, 1 hour pre-treatment, 15 μM sodium arsenite for 23 hours; 10-point dose response

Question: `CCN(CC1CCCN(C(C)(C)Cc2cccc(OC)c2)C1)C(=O)c1cc2cc(OC)ccc2[nH]1` (stereo not drawn) [compound 313] was tested. Which IC50 did it give?
Answer: > 10000 nM

Question: `CCN(CC1CCCN(C(C)(C)Cc2cccc(Cl)c2)C1)C(=O)c1cc2ccccc2[nH]1` (stereo not drawn) [Compound 335] was tested. Which IC50 did it give?
Answer: < 1500 nM

Question: For `CCN(CC1CCCN(C(C)(C)Cc2cccc(OC(F)(F)F)c2)C1)C(=O)c1cc2cc(OC(F)(F)F)ccc2[nH]1` (stereo not drawn) [Compound 337], which IC50 is on record?
Answer: < 1500 nM

Question: For `CCN(CC1CCN(CC(C)(C)c2cc3ccccc3o2)CC1)C(=O)c1cc2ccccc2[nH]1` [compound 318], which IC50 is on record?
Answer: < 1500 nM
